The record followed here is ChEMBL document CHEMBL1201862, “PubChem BioAssay data set” (2004).

Among the test systems are MOLT-4; ACHN; SW-620; HOP-18; SF-295; LXFL 529; DMS-114; HOP-62; SR; DLD-1; M14; DMS-273; CAKI-1; SF-268; RXF 393; TK-10; HCT-116; NCI/ADR-RES; MCF7; PC-3.
What all share (assay): NCI-60 cell line screen, 48 h

Structures are written as SMILES.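 These data come from cells grown in 96-well plates and exposed to compound for 48 hours at five concentrations. GI50 marks 50% less growth.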 The source made the active and inactive calls. Rule as the data show it: active = GI50 up to about 1.1 µM and inactive = higher.

In the case of `Cc1cc(O)c2c(c1)C(=O)c1cc(O)cc(O)c1C2=O` [EMODIN], the GI50 with MOLT-4 is 31 µM (inactive); with ACHN, 18.6 µM (inactive); in the assay with SW-620, 27.6 µM (inactive); in the assay on HOP-18, 3.94 µM (inactive); in the assay on SF-295, 23.3 µM (inactive); with LXFL 529 it was 24.4 µM (inactive). The GI50 is 41.2 µM (inactive) with DMS-114; 14.4 µM (inactive) in the assay on HOP-62; 23.4 µM (inactive) with SR; 23.3 µM (inactive) in the assay on DLD-1; 21.4 µM (inactive) with M14; 19.8 µM (inactive) in the assay on DMS-273. Also, the GI50 is 17.1 µM (inactive) with CAKI-1; 22 µM (inactive) in the assay with SF-268; 41 µM (inactive) in the assay on RXF 393; 39.4 µM (inactive) with TK-10; 24 µM (inactive) in the assay on HCT-116.
In the case of `CCOC(=O)/C=C/c1c[nH]c(=O)[nH]c1=O`, the GI50 was > 33.4 µM (inactive) with MOLT-4; > 47.3 µM (inactive) with SW-620; > 75 µM (inactive) with HOP-18; > 75 µM (inactive) in the assay on SF-295; > 75 µM (inactive) with NCI/ADR-RES; > 75 µM (inactive) in the assay on DMS-114. Moreover, the GI50 in the assay with HOP-62 is > 49.1 µM (inactive); in the assay with DLD-1, > 75 µM (inactive); in the assay with DMS-273 it was > 75 µM (inactive); in the assay on CAKI-1, > 75 µM (inactive); in the assay with SF-268, > 75 µM (inactive); in the assay on MCF7, > 75 µM (inactive). Further, the GI50 in the assay with RXF 393 and in the assay on HCT-116 was > 75 µM (inactive) throughout.
`CC1OC=CC(=O)C1O` (stereo not given): the GI50 in the assay with MOLT-4, in the assay on ACHN, in the assay on SW-620, in the assay on SF-295, with LXFL 529 and in the assay on HOP-62 was > 100 µM (inactive) each time. The GI50 with SR, in the assay with DLD-1, in the assay on M14, in the assay with RXF 393 and in the assay with TK-10 was > 100 µM (inactive) in each case.
Regarding `O=c1oc2c(ccc3occc32)c(N2CCCCC2)c1-c1ccccc1`, the GI50 was > 100 µM (inactive) with SW-620; > 88.5 µM (inactive) in the assay with HOP-18; 97.3 µM (inactive) in the assay on SF-295; > 100 µM (inactive) in the assay with NCI/ADR-RES; > 86.1 µM (inactive) in the assay on DMS-114; > 100 µM (inactive) in the assay with HOP-62. Also, the GI50 with DLD-1 is > 100 µM (inactive); in the assay with DMS-273, > 100 µM (inactive); with SF-268 it was > 100 µM (inactive); in the assay on MCF7, > 93.5 µM (inactive); in the assay with RXF 393, > 64.3 µM (inactive); with HCT-116, > 100 µM (inactive).
As for `O=C(N[C@@H](c1ccccc1)[C@@H](O)C(=O)OCc1ccc2c(c1)OCO2)c1ccccc1`, the GI50 with MOLT-4 is > 91.8 µM (inactive); in the assay on SW-620, > 100 µM (inactive); with HOP-18, > 100 µM (inactive); in the assay on SF-295, > 100 µM (inactive); in the assay with NCI/ADR-RES it was > 42.1 µM (inactive); with DMS-114, > 100 µM (inactive). The GI50 is > 100 µM (inactive) in the assay on HOP-62; > 100 µM (inactive) with DLD-1; > 100 µM (inactive) in the assay with DMS-273; 1 µM (active) in the assay on CAKI-1; > 100 µM (inactive) in the assay on SF-268; > 100 µM (inactive) with MCF7. The values for the GI50 in the assay on RXF 393 and with HCT-116 were 52.8 µM (inactive) and > 100 µM (inactive), respectively.
As for `O=C(O)/C=C/c1ccncc1`, the GI50 in the assay with MOLT-4, with ACHN, in the assay with SW-620, in the assay with SF-295, with LXFL 529 and in the assay with DMS-114 was > 100 µM (inactive) throughout. The GI50 is 0.223 µM (active) in the assay on HOP-62; > 100 µM (inactive) in the assay on SR; > 100 µM (inactive) in the assay with DLD-1; > 100 µM (inactive) in the assay with M14; > 100 µM (inactive) in the assay with DMS-273; > 100 µM (inactive) with CAKI-1. For the same compound, the GI50 in the assay with SF-268, in the assay on RXF 393, with TK-10 and with HCT-116 was > 100 µM (inactive) each time.
Regarding `O=C1OC(c2ccccc2)=N/C1=C/c1cccs1`, the GI50 is 14.5 µM (inactive) with MOLT-4; > 100 µM (inactive) with ACHN; > 100 µM (inactive) in the assay on SW-620; > 100 µM (inactive) in the assay with SF-295; 38.3 µM (inactive) in the assay on NCI/ADR-RES; 48.5 µM (inactive) in the assay on HOP-62. The GI50 with SR is 70 µM (inactive); in the assay on M14, > 100 µM (inactive); in the assay on SF-268 it was > 100 µM (inactive); in the assay on PC-3 it was > 100 µM (inactive); in the assay with MCF7, > 100 µM (inactive); in the assay on RXF 393, > 100 µM (inactive). The GI50 in the assay with TK-10 is > 100 µM (inactive).
For the compound `CC1C(=O)CC(c2cccs2)N(N=O)C1c1cccs1` (stereo not given), the GI50 with MOLT-4 was 25.8 µM (inactive); with SW-620, 54.6 µM (inactive); in the assay on HOP-18, 75.2 µM (inactive); in the assay with SF-295 it was 24.7 µM (inactive); with NCI/ADR-RES it was 26.6 µM (inactive); with HOP-62, 97.7 µM (inactive). Also, the GI50 with DLD-1 is 70.3 µM (inactive); in the assay with DMS-273, 38.5 µM (inactive); in the assay with CAKI-1, > 100 µM (inactive); with SF-268, 97.3 µM (inactive); in the assay with MCF7, 19.3 µM (inactive); with RXF 393, 24.9 µM (inactive). The GI50 in the assay with HCT-116 is 46.2 µM (inactive).
